Literature values, collected in patent US20220206017A1, “AEROBIC GLYCOLYSIS AND HYPERMETABOLIC STATES” (priority 2022, published 2022).

Assays:
[1] = 3BP and DCA intravenous; 2DG oral
[2] = tested on: Red blood cells (RBC); details: monotherapy at known clinical doses
[3] = biological target: T1, hexokinase II (Homo sapiens, UniProt P52789); details: inhibition of hexokinase II; reported value
T1 sequence (P52789 1-917): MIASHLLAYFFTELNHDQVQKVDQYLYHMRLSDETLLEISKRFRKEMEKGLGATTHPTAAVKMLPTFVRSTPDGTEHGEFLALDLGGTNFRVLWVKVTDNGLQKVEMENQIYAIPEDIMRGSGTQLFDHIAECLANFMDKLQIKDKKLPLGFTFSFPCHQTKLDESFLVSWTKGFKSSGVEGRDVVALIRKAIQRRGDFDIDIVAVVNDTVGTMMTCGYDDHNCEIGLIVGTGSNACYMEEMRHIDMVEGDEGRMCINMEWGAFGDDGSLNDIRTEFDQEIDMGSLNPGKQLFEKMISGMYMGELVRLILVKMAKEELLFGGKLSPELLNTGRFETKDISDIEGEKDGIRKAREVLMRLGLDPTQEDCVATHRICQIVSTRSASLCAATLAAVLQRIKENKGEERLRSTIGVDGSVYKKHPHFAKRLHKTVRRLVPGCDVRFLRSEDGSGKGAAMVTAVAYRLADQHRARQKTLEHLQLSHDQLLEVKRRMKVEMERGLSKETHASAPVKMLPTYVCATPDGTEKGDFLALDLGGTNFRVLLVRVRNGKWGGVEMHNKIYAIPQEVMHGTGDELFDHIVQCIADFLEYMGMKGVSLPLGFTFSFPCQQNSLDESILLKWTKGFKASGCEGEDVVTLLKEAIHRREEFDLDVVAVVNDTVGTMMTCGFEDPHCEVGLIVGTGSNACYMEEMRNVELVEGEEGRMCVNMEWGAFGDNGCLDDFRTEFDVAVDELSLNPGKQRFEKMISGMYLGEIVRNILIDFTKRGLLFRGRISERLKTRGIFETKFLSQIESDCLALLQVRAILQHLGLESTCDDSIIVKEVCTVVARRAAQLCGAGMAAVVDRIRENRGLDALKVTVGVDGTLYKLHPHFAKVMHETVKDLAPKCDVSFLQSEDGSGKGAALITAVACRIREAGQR

[4] = tested on: melanoma; details: in vivo; compared to L-Lactic Acid Dimer (LLAD) and phosphate buffered saline control; FIG. 3, ref [4]

Compound | side effects of administration / clinical use [1] | RBC hemolysis [2] | Ki [3] [µM] | melanoma cytotoxicity as measured by Ki-67 nuclei [4]
O=CC[C@@H](O)[C@H](O)[C@H](O)CO [2DG, 2-Deoxy-D-Glucose] | generally well tolerated | does not cause RBC hemolysis | 2900 | –
O=C(O)C(=O)CBr [3BP, 3-Bromopyruvate] | pain and phlebitis | – | – | –
O=C(O)C(Cl)Cl [DCA, Dichloroacetate] | neurotoxicity | – | – | –
C[C@@H](O)C(=O)O[C@H](C)C(=O)O [DLAD, D-Lactic Acid Dimer] | – | – | – | impressive melanoma cytotoxicity
